Drawing on PubChem BioAssay (NCI), this text covers GI50 and TGI for 9 compounds.

Structures are written as SMILES.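 All cell lines were grown in 96-well plates and treated with compound for 48 hours. Here, GI50 denotes the concentration required for 50% inhibition of growth. At the TGI there is no net growth.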

Some test systems named below: HCC-2998 colon; HCT-15 colon; HS 578T breast; MDA-MB-435; SF-268 CNS; SF-539 CNS; SK-MEL-28 melanoma; SNB-75 CNS; T-47D breast; UACC-257 melanoma.
What all share (test): inhibition of tumour cell growth, NCI panel, 48 h

On to `Cc1ccc(NC(=O)c2cccc(C(C)(C)C#N)c2)cc1Nc1ccc2ncn(C)c(=O)c2c1`, for which the GI50 with HCC-2998 colon is 0.0676 µM; with HCT-15 colon it was 3.11 µM; with HS 578T breast, 8.65 µM; in the experiment with MDA-MB-435, 0.0625 µM; in the experiment with SF-268 CNS, 6.01 µM; in the experiment with SF-539 CNS, 3.32 µM. Moreover, the GI50 in the experiment with SK-MEL-28 melanoma is 0.0192 µM; with SNB-75 CNS, 12.7 µM; with T-47D breast it was 3.66 µM; in the experiment on UACC-257 melanoma, 0.0405 µM. The TGI in the experiment with HCC-2998 colon, in the experiment on HCT-15 colon, with HS 578T breast, with MDA-MB-435, with SF-268 CNS and in the experiment on SF-539 CNS was more than 100 µM throughout. Besides, the TGI with SNB-75 CNS, in the experiment with T-47D breast and with UACC-257 melanoma was more than 100 µM each time.

`Cc1cc(C(=O)Nc2ccc3cc(CN4CCOCC4)ccc3n2)c(C)n1-c1ccccc1`: the GI50 with HCC-2998 colon was 8.78 µM; in the experiment with HCT-15 colon it was 2.41 µM; in the experiment with HS 578T breast it was 4 µM; with MDA-MB-435, 1.38 µM; in the experiment with SF-268 CNS, 3.35 µM; in the experiment on SF-539 CNS, 4.84 µM. Also, the GI50 is 2.91 µM in the experiment with SK-MEL-28 melanoma, 3.42 µM with SNB-75 CNS, 0.393 µM with T-47D breast and 1.27 µM with UACC-257 melanoma. The TGI was more than 100 µM in the experiment with HCC-2998 colon; 20.4 µM in the experiment with HCT-15 colon; 44.6 µM in the experiment with HS 578T breast; 5.22 µM in the experiment on MDA-MB-435; 35.7 µM in the experiment with SF-268 CNS; 27.7 µM with SF-539 CNS. Besides, the TGI in the experiment with SK-MEL-28 melanoma turned out to be 8.91 µM; in the experiment on SNB-75 CNS, 15.8 µM; with T-47D breast it was 4.56 µM; with UACC-257 melanoma, 4.07 µM.

Turning to `COc1ccc(C(=O)c2cc(C)c(OC)c(C)c2)c(OC)c1O`, the GI50 in the experiment with HCC-2998 colon was 0.127 µM; with HCT-15 colon it was 0.0214 µM; in the experiment on HS 578T breast, 0.0274 µM; with SF-268 CNS, 0.207 µM; with SF-539 CNS, 0.0206 µM; in the experiment on SK-MEL-28 melanoma, 1.42 µM. For the same compound, the GI50 is 0.026 µM in the experiment on SNB-75 CNS, 5.95 µM in the experiment on T-47D breast and 32.9 µM in the experiment on UACC-257 melanoma. Further, the TGI in the experiment with HCC-2998 colon was more than 27.4 µM; with HCT-15 colon, more than 100 µM; with HS 578T breast, more than 100 µM; in the experiment on SF-268 CNS, more than 100 µM; with SF-539 CNS, 0.0532 µM; in the experiment with SK-MEL-28 melanoma, more than 100 µM. Besides, the TGI with SNB-75 CNS, in the experiment on T-47D breast and in the experiment on UACC-257 melanoma was more than 100 µM in each case.

Turning to `COC(=O)Nc1nc2ccc(C3(c4ccc(F)cc4)OCCO3)cc2[nH]1`, the GI50 was 1.99 µM in the experiment on HCC-2998 colon; 0.178 µM with HCT-15 colon; 0.315 µM in the experiment on HS 578T breast; 0.0436 µM in the experiment on MDA-MB-435; 2.07 µM with SF-268 CNS; 0.196 µM with SF-539 CNS. Further, the GI50 in the experiment on SK-MEL-28 melanoma was 0.769 µM; in the experiment with SNB-75 CNS, 0.262 µM; in the experiment with UACC-257 melanoma, 1.28 µM. In addition, the TGI was more than 100 µM with HCC-2998 colon; more than 100 µM in the experiment on HCT-15 colon; more than 69.9 µM in the experiment on HS 578T breast; 0.238 µM in the experiment with MDA-MB-435; more than 100 µM in the experiment on SF-268 CNS; 0.52 µM in the experiment on SF-539 CNS. The results for the TGI with SK-MEL-28 melanoma, with SNB-75 CNS and in the experiment with UACC-257 melanoma were more than 100 µM, 98.4 µM and more than 100 µM, respectively.

Take `Cc1ccc(N=C/C=C(\Nc2ccc(C)cc2)c2ccc(Cl)cc2)cc1`: the GI50 with HCT-15 colon is 5.77 µM; in the experiment with HS 578T breast it was 15.3 µM; with MDA-MB-435, 2.82 µM; in the experiment on SF-268 CNS, 13.4 µM; in the experiment with SF-539 CNS it was 6.1 µM; with SK-MEL-28 melanoma it was 4.99 µM. Moreover, the GI50 is more than 100 µM in the experiment on T-47D breast and 15.8 µM with UACC-257 melanoma. Besides, the TGI is more than 100 µM in the experiment on HCT-15 colon; 41.7 µM with HS 578T breast; 12 µM in the experiment on MDA-MB-435; 40.2 µM in the experiment with SF-268 CNS; 26.6 µM in the experiment on SF-539 CNS; 27.1 µM in the experiment on SK-MEL-28 melanoma. The results for the TGI in the experiment on T-47D breast and in the experiment on UACC-257 melanoma were more than 100 µM and 38.8 µM, respectively.

Take `COCC[C@H]1CCC/C=C/[C@@H]2C[C@H](O)C[C@H]2[C@H](O)/C=C/C(=O)O1`: the GI50 in the experiment on HCC-2998 colon is 0.079 µM; in the experiment on HCT-15 colon it was 0.314 µM; in the experiment on HS 578T breast, 0.0506 µM; in the experiment with MDA-MB-435, 0.0595 µM; in the experiment with SF-268 CNS, 0.0488 µM; with SF-539 CNS, 0.213 µM. The GI50 is 0.0345 µM in the experiment with SK-MEL-28 melanoma, 0.0423 µM with SNB-75 CNS and 0.035 µM in the experiment on UACC-257 melanoma. Also, the TGI in the experiment on HCT-15 colon is more than 100 µM; in the experiment on HS 578T breast, more than 100 µM; with MDA-MB-435, more than 100 µM; with SF-268 CNS, more than 100 µM; in the experiment with SF-539 CNS, more than 100 µM; in the experiment on SK-MEL-28 melanoma, 0.153 µM. This compound came in with a TGI in the experiment with SNB-75 CNS of more than 100 µM.

Take `CN1CCc2nc(N)nc(-c3nc(N)nc4c3CN(C)CC4)c2C1`: the TGI in the experiment with HCT-15 colon, in the experiment with HS 578T breast, with MDA-MB-435, in the experiment on SF-268 CNS, with SF-539 CNS and in the experiment with SK-MEL-28 melanoma was more than 100 µM in each case. For the same compound, the TGI in the experiment on T-47D breast and with UACC-257 melanoma was more than 100 µM in each case.

Consider `Cc1cc(NC(=S)SCc2ccc(F)cc2)c([N+](=O)[O-])cc1C`, for which the TGI in the experiment with HCT-15 colon is 46.4 µM; in the experiment on HS 578T breast, 46.6 µM; in the experiment with MDA-MB-435, 73.2 µM; in the experiment on SF-268 CNS, more than 100 µM; with SF-539 CNS it was 53.2 µM; in the experiment on SK-MEL-28 melanoma, more than 100 µM. For the same compound, the results for the TGI in the experiment on SNB-75 CNS, with T-47D breast and in the experiment with UACC-257 melanoma were more than 100 µM, more than 100 µM and 53.6 µM, respectively.

With `CC12OC(C(=O)C13CC3)C1C(=O)c3ccc4c(ccc5ccccc54)c3C(=O)C12` (configuration not stated), the GI50 with HCC-2998 colon is 20.4 µM; in the experiment with HS 578T breast, 42.2 µM; in the experiment on MDA-MB-435, 35.2 µM; in the experiment with SF-268 CNS, 26.5 µM; in the experiment on SF-539 CNS it was 32.2 µM; in the experiment on SK-MEL-28 melanoma it was 66.3 µM. For the same compound, the GI50 in the experiment with SNB-75 CNS was 51.3 µM; in the experiment with T-47D breast, 25.7 µM; in the experiment with UACC-257 melanoma, 33.5 µM. Further, the TGI with HCC-2998 colon was more than 100 µM; in the experiment on HS 578T breast it was more than 100 µM; in the experiment on MDA-MB-435, more than 100 µM; in the experiment on SF-268 CNS it was 86.1 µM; in the experiment with SF-539 CNS, more than 100 µM; in the experiment with SK-MEL-28 melanoma, more than 100 µM. Also, the TGI is more than 100 µM with SNB-75 CNS, 98.9 µM in the experiment on T-47D breast and more than 100 µM with UACC-257 melanoma.
